Test results: patent US20240174727A1, “LONG-ACTING NATRIURETIC PEPTIDES AND USES THEREOF” (Eli Lilly and Company, priority 2022, published 2024)
Read-outs that look alike come from different tables or passages of the source. Numbered stars: 1 amine (or outer) side, 2 acyl side, 3 side chain; on linkers, the order of the positions; unused ones are H or OH. Bridge positions count the residues as written; N and C are the ends. Square brackets hold non-standard residues; d marks the D form. Peptide text beside a SMILES is read from it. * marks the point of attachment. C20 diacid = O=C(O)CCCCCCCCCCCCCCCCCCC(=O)*; γGlu = O=C(O)[C@H](CCC(=O)[*:2])N[*:1]; 4Pal = N[C@@H](Cc1ccncc1)C(=O)O; CH2 = C([*:1])[*:2]; βAla = NCCC(=O)O

Legend:
[1] = target: T1, human NPRA (Homo sapiens, UniProt P16066); assay: Human NPRA cGMP activity assay (HTRF) in HEK293 cells overexpressing NPRA; type: cell-based; conditions: assay buffer with 0.1% casein
T1 construct: Full-Length cDNA Cloning and Generation of Cell Lines Overexpressing Natriuretic Peptide Receptors (NPRs); expressed in transfected cells; host or cells: Jump-in T-Rex HEK293 cells, pJTI R4 CMV-TO MCS pA vector, tetracycline induction
T1 sequence (P16066 33-1061): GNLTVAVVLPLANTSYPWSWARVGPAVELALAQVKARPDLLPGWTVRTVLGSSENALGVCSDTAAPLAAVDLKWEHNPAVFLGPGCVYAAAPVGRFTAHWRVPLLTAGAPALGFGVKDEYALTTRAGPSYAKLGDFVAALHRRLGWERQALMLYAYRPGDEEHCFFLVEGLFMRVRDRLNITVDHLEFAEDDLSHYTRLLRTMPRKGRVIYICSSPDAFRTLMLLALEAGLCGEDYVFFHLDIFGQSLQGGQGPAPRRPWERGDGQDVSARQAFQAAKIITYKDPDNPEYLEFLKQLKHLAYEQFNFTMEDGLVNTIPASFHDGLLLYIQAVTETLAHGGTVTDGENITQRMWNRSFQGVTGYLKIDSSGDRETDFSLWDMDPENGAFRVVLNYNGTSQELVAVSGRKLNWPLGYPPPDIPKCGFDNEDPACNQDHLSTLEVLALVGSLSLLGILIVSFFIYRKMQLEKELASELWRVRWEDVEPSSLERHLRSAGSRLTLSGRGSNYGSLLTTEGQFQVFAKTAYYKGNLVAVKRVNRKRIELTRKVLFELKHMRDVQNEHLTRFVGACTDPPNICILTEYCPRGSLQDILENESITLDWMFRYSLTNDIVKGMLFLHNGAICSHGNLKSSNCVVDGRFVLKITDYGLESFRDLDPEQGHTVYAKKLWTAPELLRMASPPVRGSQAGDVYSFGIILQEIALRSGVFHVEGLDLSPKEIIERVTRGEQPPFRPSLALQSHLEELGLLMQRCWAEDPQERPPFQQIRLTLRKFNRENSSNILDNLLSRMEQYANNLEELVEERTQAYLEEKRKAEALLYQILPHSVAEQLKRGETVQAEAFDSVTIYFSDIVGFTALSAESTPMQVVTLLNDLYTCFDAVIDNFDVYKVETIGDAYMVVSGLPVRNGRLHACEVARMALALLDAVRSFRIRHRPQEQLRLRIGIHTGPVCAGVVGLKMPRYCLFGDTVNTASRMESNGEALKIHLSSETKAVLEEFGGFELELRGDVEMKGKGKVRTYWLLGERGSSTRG
Method: (§1) All sequences were verified by full-length sequencing performed by ACGT DNA Sequencing Services (Wheeling, IL). The target cDNA was cloned into pJTI R4 CMV-TO MCS pA vector and then co-transfected with pJT1R4 Int vector into Jump-in™ T-Rex™ HEK293 cells for mammalian inducible expression using Jump-in™ T-Rex™ HEK293 kit and Lipofectamine LTX and Plus Reagent following manufacturer's protocols, as briefly described below.
(§2) Jump-in™ T-Rex™ HEK293 cells were plated in a BioCOAT® poly-D-lysine coated 6-well plate (Becton Dickinson, cat no. 354413) at 1 million cells/well in 2 mL culture medium and incubated for 18 h at 37° C. and 5% CO2 to 50-70% confluence. A cDNA mix was made in a 50 mL tube by adding 1.5 μg target cDNA, 1.5 μg pJT1R4 Int vector, 3 μL Plus Reagent, and 300 μL Opti-MEM I sequentially into the tube. A reagent mix was made in a separate 50 mL tube by adding 7.5 μL Lipofectamine LTX into 300 μL Opti-MEM I. The mixtures were incubated for 5 min at room temperature. The cDNA mix was then transferred into the reagent mix, mixed well, and incubated for additional 30 min at room temperature. A 500 μL of cDNA/Lipofectamine complex was then transferred to the wells of the cell plate in which the culture medium was changed to 2 mL of transfection medium containing DMEM with 4.5 g/L D-glucose supplemented with 10% FBS-HI and 20 mM HEPES. Transfected cells were cultured for 48 h in an incubator at 37° C. and 5% CO2. A subclone or pool from each overexpressing cell line was maintained in culture medium with the addition of 2 mg/mL G418 sulfate for the clone selection based on its built-in resistance to G418 sulfate for at least 3 weeks with medium changed every 2-3 days.
(§3) NPRs were overexpressed in T-Rex™ HEK293 cells following the induction with 300 ng/mL tetracycline in culture medium for 48 h. Induced cell lines in an exponential growth phase were treated with 0.05% trypsin-EDTA for a few seconds at room temperature, harvested in cell medium containing FBS to neutralize the trypsin, counted, and cryopreserved at the density of 2 million cells/mL in cell preservation solution containing FBS-HI with 5% DMSO. Cryopreserved cells were stored at −80° C. for a few days prior to transferring to a liquid nitrogen tank. Induced cell lines were then used for suspension assays to measure the activity of polypeptides to stimulate cGMP production in cGMP assays or for the preparation of cell membranes to measure the binding activity of polypeptides in competitive radioligand binding assays, as described below.
(§4) Test polypeptides were added starting at 10 μM concentration and at 10-fold decreasing concentrations to obtain 8-point concentration-response curves (i.e., 10 μM to 1 pM). The quantity of cGMP generated was detected using HTRF® technology and normalized to maximum amount produced by 100 nM amidated rat ANP and the minimum amount produced by assay buffer. Detailed steps are outlined below.
(§5) Stock solutions of test polypeptides (2 mM) dissolved in DMSO were first diluted 100-fold in assay buffer containing HBSS with Ca^2+ and Mg^2+, 5 mM HEPES, 0.5 mM IBMX, and 0.1% BSA or 0.1% casein (pH 7.4). The polypeptides were further serially diluted in 1:10 dilution steps in assay buffer containing 0.1% BSA or 0.1% casein to generate 8-point 2× working stock solutions ranging from 20 μM to […].
(§6) A 10 μL cell suspension containing 4000 cells was plated in Costar® half-area white opaque 96-well plates (Corning, cat no. 3693). Then 10 μL of assay buffer (basal activity), 200 nM of amidated rat ANP (maximum activity) or 2× working stock solutions of test polypeptides were transferred into the plate. Final concentration of DMSO in each well was 0.5%. The plate was shaken for 15 sec and then incubated for 40 min at room temperature.
(§7) The cGMP generated was measured using cGMP kit following the manufacturer's directions, as described below.

[2] = target: T2, rat NPRA (Rattus norvegicus, UniProt P18910); assay: Rat NPRA cGMP activity assay (HTRF) in HEK293 cells overexpressing NPRA; type: cell-based; conditions: assay buffer with 0.1% casein, read-out: cGMP Assay (EC50, pM) w/Casein rNPRA
T2 construct: Full-Length cDNA Cloning and Generation of Cell Lines Overexpressing Natriuretic Peptide Receptors (NPRs); expressed in transfected cells; host or cells: Jump-in T-Rex HEK293 cells, pJTI R4 CMV-TO MCS pA vector, tetracycline induction
T2 sequence (P18910 29-1057): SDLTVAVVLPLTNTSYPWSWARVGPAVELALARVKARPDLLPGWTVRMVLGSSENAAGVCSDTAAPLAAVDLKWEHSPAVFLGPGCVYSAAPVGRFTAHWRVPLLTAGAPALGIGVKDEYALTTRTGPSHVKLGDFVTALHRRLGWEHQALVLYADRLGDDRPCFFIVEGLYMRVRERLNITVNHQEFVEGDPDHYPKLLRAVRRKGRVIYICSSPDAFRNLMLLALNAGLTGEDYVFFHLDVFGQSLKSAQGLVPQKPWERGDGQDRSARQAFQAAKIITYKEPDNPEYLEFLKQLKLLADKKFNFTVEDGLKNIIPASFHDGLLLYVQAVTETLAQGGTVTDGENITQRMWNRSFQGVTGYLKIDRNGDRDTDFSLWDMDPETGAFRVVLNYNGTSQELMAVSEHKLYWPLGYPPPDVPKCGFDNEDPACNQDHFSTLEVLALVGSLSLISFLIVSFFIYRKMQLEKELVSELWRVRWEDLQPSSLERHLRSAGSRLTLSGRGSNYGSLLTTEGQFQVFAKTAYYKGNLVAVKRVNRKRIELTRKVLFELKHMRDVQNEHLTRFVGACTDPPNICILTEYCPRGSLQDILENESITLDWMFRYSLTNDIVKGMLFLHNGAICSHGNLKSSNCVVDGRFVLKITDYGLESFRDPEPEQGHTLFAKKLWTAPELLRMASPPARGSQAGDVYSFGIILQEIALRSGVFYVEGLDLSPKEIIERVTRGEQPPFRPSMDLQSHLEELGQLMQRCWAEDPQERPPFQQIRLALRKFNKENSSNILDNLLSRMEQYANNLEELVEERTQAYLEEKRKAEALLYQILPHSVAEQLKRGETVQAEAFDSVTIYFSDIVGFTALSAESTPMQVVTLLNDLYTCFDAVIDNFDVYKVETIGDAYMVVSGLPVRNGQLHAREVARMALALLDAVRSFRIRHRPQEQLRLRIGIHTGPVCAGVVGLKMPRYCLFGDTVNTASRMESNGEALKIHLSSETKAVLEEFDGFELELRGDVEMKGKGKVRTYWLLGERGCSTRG
Method: as §1, §2, §3, §4, §5, §6, §7

[3] = read-out: cGMP Assay (EC50, pM) w/Casein hNPRA

| Molecule | EC50 [1, 3] [pM] | further results |
| --- | --- | --- |
| CC[C@H](C)[C@@H]1NC(=O)[C@H](CCCNC(=N)N)NC(=O)[C@H](CC(=O)O)NC(=O)[C@H]([C@@H](C)CC)NC(=O)[C@H](CCCNC(=N)N)NC(=O)CNC(=O)CNC(=O)[C@H](Cc2ccccc2)NC(=O)[C@@H](NC(=O)[C@H](CO)NC(=O)[C@H](CO)NC(=O)[C@H](CCCNC(=N)N)NC(=O)[C@H](CCCNC(=N)N)NC(=O)[C@H](Cc2ccncc2)NC(=O)[C@H](CO)NC(=O)CNC(=O)[C@H](CCCCN)NC(=O)[C@H](CCC(=O)O)NC(=O)[C@H](CCCCN)NC(=O)[C@H](CCC(=O)O)NC(=O)[C@H](CCCCN)NC(=O)[C@H](CCC(=O)O)NC(=O)CC[C@H](NC(=O)CCCCCCCCCCCCCCCCCCC(=O)O)C(=O)O)CSSC[C@@H](C(=O)N[C@@H](CC(N)=O)C(=O)N[C@@H](CO)C(=O)N[C@@H](Cc2ccccc2)C(=O)N[C@@H](CCCNC(=N)N)C(=O)N[C@@H](Cc2ccncc2)C(N)=O)NC(=O)CNC(=O)[C@H](CC(C)C)NC(=O)CNC(=O)[C@H](CO)NC(=O)[C@H](CCC(N)=O)NC(=O)[C@H](C)NC(=O)CNC1=O [Example 15] ({C20 diacid-γGlu}-EKEKEKGS[4Pal]RRSSCFGGRIDRIGAQSGLGCNSFR[4Pal]-NH2; disulfide 14-30) | 912 | – |
| CC[C@H](C)[C@@H]1NC(=O)[C@H](CCCNC(=N)N)NC(=O)[C@H](CC(=O)O)NC(=O)[C@H]([C@@H](C)CC)NC(=O)[C@H](CCCNC(=N)N)NC(=O)CNC(=O)[C@H](Cc2c[nH]cn2)NC(=O)[C@H](Cc2ccccc2)NC(=O)[C@@H](NC(=O)[C@H](CO)NC(=O)[C@H](CO)NC(=O)[C@H](CCCNC(=N)N)NC(=O)[C@H](CCCNC(=N)N)NC(=O)[C@H](Cc2c[nH]cn2)NC(=O)[C@H](CO)NC(=O)CNC(=O)[C@H](CCCCN)NC(=O)[C@H](CCC(=O)O)NC(=O)[C@H](CCCCN)NC(=O)[C@H](CCC(=O)O)NC(=O)[C@H](CCCCN)NC(=O)[C@H](CCC(=O)O)NC(=O)CC[C@H](NC(=O)CCCCCCCCCCCCCCCCCCC(=O)O)C(=O)O)CSSC[C@@H](C(=O)N[C@@H](CC(N)=O)C(=O)N[C@@H](CO)C(=O)N[C@@H](Cc2ccccc2)C(=O)N[C@@H](CCCNC(=N)N)C(=O)N[C@@H](Cc2c[nH]cn2)C(N)=O)NC(=O)CNC(=O)[C@H](CC(C)C)NC(=O)CNC(=O)[C@H](CO)NC(=O)[C@H](CCC(N)=O)NC(=O)[C@H](C)NC(=O)[C@H](Cc2c[nH]cn2)NC1=O [Example 16] ({C20 diacid-γGlu}-EKEKEKGSHRRSSCFHGRIDRIHAQSGLGCNSFRH-NH2; disulfide 14-30) | 807 | – |
| {C20 diacid-γGlu}-EKEKEKGEK[βAla]RSSCFGGRIDRIGHYSGLGCPSLRHGGPSSGAPPPS-NH2 (linker 14-30 via CH2) [Example 63] | – | EC50 ([1]; cGMP Assay (EC50, pM) w/Casein hNPRA): 1090 pM |
| CC[C@H](C)[C@@H]1NC(=O)[C@H](CCCNC(=N)N)NC(=O)[C@H](CC(=O)O)NC(=O)[C@H]([C@@H](C)CC)NC(=O)[C@H](CCCNC(=N)N)NC(=O)CNC(=O)CNC(=O)[C@H](Cc2ccccc2)NC(=O)[C@@H](NC(=O)[C@H](CO)NC(=O)[C@H](CO)NC(=O)[C@H](CCCNC(=N)N)NC(=O)[C@H](CCCNC(=N)N)NC(=O)[C@H](Cc2ccncc2)NC(=O)[C@H](CO)NC(=O)CCOCCOCCOCCOCCOCCOCCOCCOCCOCCOCCOCCOCCNC(=O)CNC(=O)[C@H](CCCCN)NC(=O)[C@H](CCC(=O)O)NC(=O)[C@H](CCCCN)NC(=O)[C@H](CCC(=O)O)NC(=O)[C@H](CCCCN)NC(=O)[C@H](CCC(=O)O)NC(=O)CC[C@H](NC(=O)CCCCCCCCCCCCCCCCCCC(=O)O)C(=O)O)CSCSC[C@@H](C(=O)N2CCC[C@H]2C(=O)N[C@@H](CO)C(=O)N[C@@H](Cc2ccccc2)C(=O)N[C@@H](CCCNC(=N)N)C(=O)N[C@@H](Cc2c[nH]cn2)C(=O)NCC(=O)NCC(=O)N[C@@H](CCCCN)C(=O)N[C@@H](CO)C(=O)N[C@@H](CO)C(=O)NCC(=O)N[C@@H](C)C(=O)N2CCC[C@H]2C(=O)N2CCC[C@H]2C(=O)N2CCC[C@H]2C(=O)N[C@@H](CO)C(N)=O)NC(=O)CNC(=O)[C@H](CC(C)C)NC(=O)CNC(=O)[C@H](CO)NC(=O)[C@H](CCC(N)=O)NC(=O)[C@H](Cc2c[nH]cn2)NC(=O)CNC1=O [Example 82] | – | EC50 [2]: 25400 pM |
